Common to all, as to assay type: functional, cell-based
The target of experiment [1] is T1, P2Y purinoceptor 2 (Homo sapiens, UniProt P41231). Nature of the experiment: Agonist activity at human P2Y2 receptor expressed in human 1321N1 cells assessed as calcium elevation by fura2/AM assay.
The target in experiment [2] is T2, P2Y purinoceptor 4 (Homo sapiens, UniProt P51582). Description: Agonist activity at human P2Y4 receptor expressed in human 1321N1 cells assessed as concentration required to 50% maximal response of compound 3 at 10 uM by fura2/AM assay.
Experiment [3] concerns the target T3, P2Y purinoceptor 6 (Homo sapiens, UniProt Q15077). Description: Agonist activity at human P2Y6 receptor expressed in human 1321N1 cells assessed as calcium elevation at 10 uM by fura2/AM assay.
The target in experiment [4] is T2, P2Y purinoceptor 4. Description: Agonist activity at human P2Y4 receptor expressed in human 1321N1 cells assessed as calcium elevation by fura2/AM assay.
Experiment [5] has as its target T3, P2Y purinoceptor 6. Description: Agonist activity at human P2Y6 receptor expressed in human 1321N1 cells assessed as calcium elevation by fura2/AM assay.
The target in experiment [6] is T1, P2Y purinoceptor 2. Description: Agonist activity at human P2Y2 receptor expressed in human 1321N1 cells assessed as concentration required to 50% maximal response of compound 3 at 10 uM by fura2/AM assay.
Experiment [7] deals with T3, P2Y purinoceptor 6. Nature of the experiment: Agonist activity at human P2Y6 receptor expressed in human 1321N1 cells assessed as concentration required to 50% maximal response of compound 3 at 10 uM by fura2/AM assay.
Experiment [8] concerns the target T2, P2Y purinoceptor 4. Nature of the experiment: Agonist activity at human P2Y4 receptor expressed in human 1321N1 cells assessed as calcium elevation at 10 uM by fura2/AM assay.
For experiment [9], the target named is T1, P2Y purinoceptor 2. Nature of the experiment: Agonist activity at human P2Y2 receptor expressed in human 1321N1 cells assessed as calcium elevation at 10 uM by fura2/AM assay.
The target of experiment [10] is P2Y purinoceptor 2 (Mus musculus, UniProt P35383). Nature of the experiment: Agonist activity at mouse P2Y2 receptor expressed in human 1321N1 cells assessed as calcium elevation by fura2/AM assay.
P2Y purinoceptor 2 (Mus musculus, UniProt P35383), sequence (P35383 whole entry): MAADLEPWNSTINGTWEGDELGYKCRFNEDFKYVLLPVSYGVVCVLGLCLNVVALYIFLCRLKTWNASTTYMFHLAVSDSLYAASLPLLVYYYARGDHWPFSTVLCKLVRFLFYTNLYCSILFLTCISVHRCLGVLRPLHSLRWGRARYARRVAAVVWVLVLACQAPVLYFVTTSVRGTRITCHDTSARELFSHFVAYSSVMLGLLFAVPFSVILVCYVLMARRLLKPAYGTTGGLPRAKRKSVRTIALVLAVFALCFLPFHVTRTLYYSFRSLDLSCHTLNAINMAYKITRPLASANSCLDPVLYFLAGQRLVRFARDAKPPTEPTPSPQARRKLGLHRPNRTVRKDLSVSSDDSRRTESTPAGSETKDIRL

T1 sequence (P41231 whole entry): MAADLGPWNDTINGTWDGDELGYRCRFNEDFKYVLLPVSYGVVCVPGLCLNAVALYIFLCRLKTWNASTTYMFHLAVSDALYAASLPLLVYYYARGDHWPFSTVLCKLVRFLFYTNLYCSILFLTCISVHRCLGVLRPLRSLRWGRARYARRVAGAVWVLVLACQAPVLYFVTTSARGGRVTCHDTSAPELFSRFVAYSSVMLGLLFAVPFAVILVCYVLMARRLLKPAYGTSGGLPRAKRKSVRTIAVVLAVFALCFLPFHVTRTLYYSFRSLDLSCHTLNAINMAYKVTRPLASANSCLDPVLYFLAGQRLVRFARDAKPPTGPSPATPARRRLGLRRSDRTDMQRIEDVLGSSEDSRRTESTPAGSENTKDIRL
T3 sequence (Q15077 whole entry): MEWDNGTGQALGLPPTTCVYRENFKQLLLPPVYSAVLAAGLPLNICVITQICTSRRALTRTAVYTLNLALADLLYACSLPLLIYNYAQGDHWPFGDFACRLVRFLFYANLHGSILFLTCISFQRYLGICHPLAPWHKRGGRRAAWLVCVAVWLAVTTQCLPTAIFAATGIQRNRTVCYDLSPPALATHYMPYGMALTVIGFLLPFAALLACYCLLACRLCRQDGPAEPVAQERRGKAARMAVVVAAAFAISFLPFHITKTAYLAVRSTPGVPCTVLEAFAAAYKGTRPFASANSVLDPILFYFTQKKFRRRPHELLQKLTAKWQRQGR
T2 sequence (P51582 whole entry): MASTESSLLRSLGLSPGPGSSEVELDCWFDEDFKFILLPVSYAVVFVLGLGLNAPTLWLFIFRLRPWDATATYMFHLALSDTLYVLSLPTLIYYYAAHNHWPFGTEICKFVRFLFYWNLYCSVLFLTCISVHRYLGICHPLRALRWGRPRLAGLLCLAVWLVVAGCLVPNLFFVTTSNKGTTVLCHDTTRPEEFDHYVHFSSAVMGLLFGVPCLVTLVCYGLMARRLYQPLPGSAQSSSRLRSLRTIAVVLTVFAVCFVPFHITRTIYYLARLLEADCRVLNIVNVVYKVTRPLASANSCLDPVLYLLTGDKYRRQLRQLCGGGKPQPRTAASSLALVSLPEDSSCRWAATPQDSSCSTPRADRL

Usually EC50 stands for the midpoint of the concentration-response curve. `O=c1[nH]c(=O)n([C@@H]2O[C@H](COP(=O)(O)OP(=O)(O)OP(=O)(O)O)[C@@H](O)[C@H]2O)cc1F`: the 50% effective concentration (EC50) on P2Y purinoceptor 2 [1] (read-out: EC50) is 6 µM; on P2Y purinoceptor 4 [2], 0.6 µM; on P2Y purinoceptor 6 [3], “Active”.
With `O=c1[nH]c(=O)n([C@@H]2O[C@H](COP(=O)(O)OP(=O)(O)OP(=O)(O)O)[C@@H](O)[C@H]2O)cc1Br`, the half-maximal effective concentration (EC50) is 2.06 µM at P2Y purinoceptor 2 [1] (read-out: EC50), 10 µM at P2Y purinoceptor 4 [4] (read-out: EC50) and 0.8 µM at P2Y purinoceptor 6 [5] (read-out: EC50).
On to `O=c1ccn([C@@H]2O[C@H](COP(=O)(O)OP(=O)(O)OP(=O)(O)OP(=O)(O)OC[C@H]3O[C@@H](n4ccc(=O)[nH]c4=O)[C@H](O)[C@@H]3O)C3OC(Cc4ccccc4)OC32)c(=O)[nH]1` (stereo partly drawn), for which the EC50 on P2Y purinoceptor 6 [5] (read-out: EC50) turned out to be 0.14 µM.
Same read-out and setting: as for `O=c1[nH]c(=O)n([C@@H]2O[C@H](COP(=O)(O)OP(=O)(O)O)[C@@H](O)[C@H]2O)cc1I`, the figure is 0.013 µM.
Regarding `COc1cn([C@@H]2O[C@H](COP(=O)(O)OP(=O)(O)O)[C@@H](O)[C@H]2O)c(=O)[nH]c1=O`, the EC50 entry at P2Y purinoceptor 2 [1] (1321-n1) is “Not Active”; on P2Y purinoceptor 4 [4] (read-out: EC50), ≥ 20 µM; on P2Y purinoceptor 6 [5] (read-out: EC50), 0.08 µM.
Regarding `O=c1[nH]c(=O)n([C@@H]2O[C@H](COP(=O)(O)OP(=O)(O)O)[C@@H](O)[C@H]2O)cc1F`, the figures for the EC50 on P2Y purinoceptor 2 [6], at P2Y purinoceptor 4 [2] and on P2Y purinoceptor 6 [7] were 2 µM, 3.5 µM and 10 µM, respectively.
As for `O=c1cc(Sc2ccccc2)n([C@@H]2O[C@H](COP(=O)(O)OP(=O)(O)OP(=O)(O)O)[C@@H](O)[C@H]2O)c(=O)[nH]1`, the concentration giving a half-maximal response (EC50) result at P2Y purinoceptor 2 [1] (1321-n1), on P2Y purinoceptor 4 [4] (1321-n1) and at P2Y purinoceptor 6 [5] (1321-n1) was “Not Active” in each case.
With `COc1cn([C@@H]2O[C@H](COP(=O)(O)OP(=O)(O)OP(=O)(O)O)[C@@H](O)[C@H]2O)c(=O)[nH]c1=O`, the EC50 is 2 µM at P2Y purinoceptor 2 [1] (read-out: EC50), 0.9 µM at P2Y purinoceptor 6 [5] (read-out: EC50) and “Active” at P2Y purinoceptor 4 [8].
With `COc1cc(=O)[nH]c(=O)n1[C@@H]1O[C@H](COP(=O)(O)OP(=O)(O)OP(=O)(O)O)[C@@H](O)[C@H]1O`, the results for the EC50 on P2Y purinoceptor 2 [1] (read-out: EC50), on P2Y purinoceptor 4 [4] (1321-n1) and on P2Y purinoceptor 6 [5] (1321-n1) were 3 µM, “Not Active” and “Not Active”, respectively.
For the molecule `O=c1[nH]c(=O)n([C@@H]2O[C@H](COP(=O)(O)OP(=O)(O)S)[C@@H](O)[C@H]2O)cc1Br` (stereo partly drawn), the EC50 on P2Y purinoceptor 6 [5] (read-out: EC50) turned out to be 0.047 µM.
With `O=c1ccn([C@]23C[C@H]2[C@H](COP(=O)(O)OP(=O)(O)O)[C@@H](O)[C@H]3O)c(=O)[nH]1`, on P2Y purinoceptor 6 [5] (read-out: EC50), the concentration for a half-maximal effect (EC50) stood at 0.23 µM.
In the case of `CSc1cc(=O)[nH]c(=O)n1[C@@H]1O[C@H](COP(=O)(O)OP(=O)(O)OP(=O)(O)O)[C@@H](O)[C@H]1O`, the EC50 entry is reported as “Active” on P2Y purinoceptor 2 [9], “Not Active” at P2Y purinoceptor 4 [4] (1321-n1) and “Not Active” on P2Y purinoceptor 6 [5] (1321-n1).
With `CCc1cn([C@@H]2O[C@H](COP(=O)(O)OP(=O)(O)OP(=O)(O)O)[C@@H](O)[C@H]2O)c(=O)[nH]c1=O`, the concentration for a half-maximal effect (EC50) on P2Y purinoceptor 2 [10] worked out at 99 µM.
For the molecule `Nc1ccn([C@H]2C[C@H](O)[C@@H](COP(=O)(O)OP(=O)(O)OP(=O)(O)OP(=O)(O)OC[C@H]3O[C@@H](n4ccc(=O)[nH]c4=O)[C@H](O)[C@@H]3O)O2)c(=O)n1` [DENUFOSOL], the EC50 at P2Y purinoceptor 2 [1] (read-out: EC50) was 0.22 µM.
Regarding `O=c1ccn([C@@H]2O[C@H](COP(=O)(O)OP(=O)(O)OP(=O)(O)O)[C@@H](O)[C@H]2O)c(=O)[nH]1` [URIDINE TRIPHOSPHATE], the figures for the EC50 on P2Y purinoceptor 2 [1] (read-out: EC50) and at P2Y purinoceptor 4 [4] (read-out: EC50) were 0.1 µM and 0.5 µM, respectively.
`O=c1ccn([C@@H]2O[C@H](COP(=O)(O)OP(=O)(O)O)[C@@H](O)[C@H]2O)c(=O)[nH]1` [URIDINE_DIPHOSPHATE]: the EC50 on P2Y purinoceptor 6 [5] (read-out: EC50) was 0.14 µM.
